Test results taken from patent US6608103B2, “Inhibitor for neovasculation, cell multiplication, lumen formation and FGF” (Fuji Chemical Industry Co., Ltd., priority 2001, dated 2003).
Entries after “also recorded” stand apart in the source; their conditions may differ.

How the values were obtained:
Format in all cases: cell-based, bovine
BAEC [1] = test: Neovasculation / lumen formation of BAEC between two layers of type I collagen gel
Protocol: BAEC was cultured between two layers of type I collagen gel, and a lumen-like netting structure formed therebetween was evaluated.
(§1) Eight parts by volume of “Vitrogen Collagen” (Collagen Co.), 1 part by volume of 0.1 N NaOH and 1 part by volume of ×10 MEM (GIBCO BRL) were placed in a tube, and mixed quickly in an ice bath. The culture solution was removed by suction, and 0.5 ml/well of the above mixture containing collagen was pipetted into each well. The microplate was placed in a CO2 incubator for about 30 minutes to gelatinize it. 1.5 ml of a medium (MEM | 2% FBS) containing a sample was added, and continued to incubate while changing the medium every second day.
(§2) The variation of cells were observed by a microscope by taking a photograph, and lumen formation was evaluated by counting the number of branches of cells forming lumen.
The inhibition test against lumen formation was carried out in the same manner as Example 15, except that α-tocopherol was substituted for DL-α-tocotrienol.

BAEC [2] = test: Inhibitory action against FGF activity, MTT assay on BAEC with FGF 20 ng/ml; design: key to Cell Multiplication: ↑: Accelerated; /: Tendency to increase; No change; ↓: Inhibited; ↓↓: Strongly inhibited; details: for Absorbance: MTT; for Cell Multiplication: summary
Protocol: The fibroblast growth factor sample was prepared by dissolving a commercial FGF (Sigma Chemical Co.) in MEM (Sigma Chemical Co.)
(§3) Each one microplate was taken out after 0, 24, 48 or 96 hours from placing the culture medium containing a sample. In the case of the microplate taken out after 96 hours, the culture medium was once changed after 48 hours. 3 mg/ml MTT solution PBS (−) was put in each well in an amount of 50 μl/well, and incubated for 3 hours in a CO2 incubator. After filling each well with phosphate buffered saline (PBS(−)), liquid in each well was evacuated, and isopropyl alcohol containing 0.04 mol/l HCL was put in each well in an amount of 200 μl/well. The microplates were allowed to stand overnight in a dark place, and then, absorbance at 595 nm and 655 nm (dual) was measured by a microplate reader.
In the case of Control group B, no sample was added.

BAEC [3] = test: Cell multiplication of BAEC, survival rate of cells using WST-1; details: for Survival Rate of Cells (% of control): 24 hours, WST-1; for IC50: determined from the graph of FIG. 1 (abscissa μM), read-out: median growth inhibition concentration (IC50)
Protocol: Influence of tocotrienols on cell multiplication of BAEC was examined in various concentrations. The cell multiplication was evaluated by determining the survival rate of cells using WST-1, which makes it possible to conduct high sensitivity measurement, instead of conventional MTT.
As a blank, the culture medium alone was incubated without adding cells. […] The microplate was taken out after 24 hours from placing the culture medium containing a sample. 10 μl/well of WST-1 solution was added to each well, and incubated in a CO2 incubator. After 3 hours, absorbance at 450 nm and 655 nm (dual) of each well was measured by a microplate reader.
The samples employed were DL-α-tocotrienol, DL-γ-tocotrienol and DL-δ-tocotrienol. In the case of Control group I, no sample was added.
The survival rate of cells was determined by the following formula:
Survival Rate of Cells=(S−B)/(C−B)×100(%)
The results of Table 10 were made in a graph shown in FIG. 1, and median growth inhibition concentration (IC50) was determined from the graph. In the figure, the numbers on the ordinate indicate the survival rate of cells (% of control), and the numbers on the abscissa indicate concentration (μM). ● is DL-α-tocotrienol, ▪ is DL-β-tocotrienol, Δ is DL-γ-tocotrienol, and X is DL-δ-tocotrienol, respectively.

BAEC [4] = test: Inhibition against lumen formation induced by FGF; design: key to Lumen Formation: ↑: Accelerated; /: Tendency to increase; No change; ↓: Inhibited; ↓↓: Strongly inhibited; details: for Lumen Formation: summary
Protocol: as §1, §2
The test was carried out similar to Examples 12-14, wherein FGF was added together with each tocotrienol. In the case of Control group E, no sample was added. […]

BAEC [5] = test: Effects of tocotrienols on multiplication of BAEC, MTT assay; details: for Absorbance: MTT; for inhibitory action against cell multiplication: Table 1
Protocol: Normal bovine aortic endothelial cells (BAEC) were manufactured by Cell Systems Co., and purchased through Dainippon Seiyaku Co., Ltd.
A cell suspension was prepared by adding the cells to MEM (Sigma Chemical Co.) containing 10 v/v (%) fetal bovine serum (FBS), 20 IU/ml penicillin and 20 IU/ml streptomycin (MEM+10% FBS) in a concentration of 1×10^5 cells/ml, and cultured in a 5% CO2 incubator at 37° C. by using a 60 mm dish coated with type I collagen with subculturing every 2 to 3 days.
Each of the above samples was added to MEM containing 2% (v/v) FBS, 20 IU/ml penicillin and 20 IU/ml streptomycin (MEM+2% FBS), and subjected to testing.
Effects of tocotrienols on the multiplication of BAEC were examined by using MTT assay.
as §3
In the case of Control group A, no sample was added.

[6] = 0 hr, FGF 20 ng/ml + sample 10 μM
[7] = 24 hrs, FGF 20 ng/ml + sample 10 μM
[8] = 48 hrs, FGF 20 ng/ml + sample 10 μM
[9] = 96 hrs, FGF 20 ng/ml + sample 10 μM
[10] = FGF (20 ng/ml) + sample (10 μM)
[11] = FGF (20 ng/ml) + sample (100 μM)

| Structure (SMILES) | inhibition of lumen formation (BAEC [1]; 10 μM) | Number of Cells Forming Lumen/cm^2 (BAEC [1]; Table 4, 10 μM) | Absorbance (BAEC [2]; [6]) | Absorbance (BAEC [2]; [7]) | Absorbance (BAEC [2]; [8]) | Absorbance (BAEC [2]; [9]) | Cell Multiplication (BAEC [2]; [10]) | IC50 (BAEC [3]) | inhibition of lumen formation induced by FGF (BAEC [4]; 10 μM + FGF 20 ng/ml) | Number of Cells Forming Lumen/cm^2 (BAEC [4]; sample 10 μM + FGF 20 ng/ml) | Lumen Formation (BAEC [4]; [10]) | Absorbance (BAEC [5]; 0 hr, sample 10 μM) | Absorbance (BAEC [5]; 24 hrs, sample 10 μM) | Absorbance (BAEC [5]; 48 hrs, sample 10 μM) | Absorbance (BAEC [5]; 96 hrs, sample 10 μM) | Survival Rate of Cells (% of control) (BAEC [3]; 2 μM) | Survival Rate of Cells (% of control) (BAEC [3]; 4 μM) | Survival Rate of Cells (% of control) (BAEC [3]; 6 μM) | Survival Rate of Cells (% of control) (BAEC [3]; 8 μM) | Survival Rate of Cells (% of control) (BAEC [3]; 10 μM) | also measured |
| --- | --- | --- | --- | --- | --- | --- | --- | --- | --- | --- | --- | --- | --- | --- | --- | --- | --- | --- | --- | --- | --- |
| CC(C)=CCC/C(C)=C/CC/C(C)=C/CC[C@]1(C)CCc2c(C)c(O)c(C)c(C)c2O1 (racemic) [DL-α-Tocotrienol, α-tocotrienol] | equivalent to the control group | 39.25 ± 1.84 /cm^2 | 0.044 ± 0.002 | 0.096 ± 0.004 | 0.290 ± 0.010 | 0.328 ± 0.018 | ↑ | 38 µM | inhibited the lumen formation induced by FGF | 25.25 ± 1.55 /cm^2 | → | 0.090 ± 0.003 | 0.141 ± 0.008 | 0.271 ± 0.010 | 0.382 ± 0.014 | – | – | – | – | – | inhibition of lumen formation (BAEC [1]; 50 μM): completely inhibited formation; Number of Cells Forming Lumen/cm^2 (BAEC [1]; Table 4, 30 μM): 31.75 ± 1.25 /cm^2; Number of Cells Forming Lumen/cm^2 (BAEC [1]; Table 4, 50 μM): 0.00 ± 0.00 /cm^2; Number of Cells Forming Lumen/cm^2 (BAEC [1]; Table 4, 100 μM): 39.25 ± 2.17 /cm^2; Survival Rate of Cells (% of control) (BAEC [3]; 25 μM): 111.0 ± 6.8 % of control; Survival Rate of Cells (% of control) (BAEC [3]; 30 μM): 115.8 ± 9.2 % of control; Survival Rate of Cells (% of control) (BAEC [3]; 35 μM): 67.3 ± 11.6 % of control; Survival Rate of Cells (% of control) (BAEC [3]; 40 μM): 39.1 ± 12.7 % of control; Survival Rate of Cells (% of control) (BAEC [3]; 45 μM): 6.9 ± 5.9 % of control |
| CC(C)=CCC/C(C)=C/CC/C(C)=C/CC[C@]1(C)CCc2c(C)c(O)cc(C)c2O1 (racemic) [DL-β-Tocotrienol, β-tocotrienol] | – | – | 0.042 ± 0.002 | 0.036 ± 0.003 | 0.055 ± 0.005 | 0.039 ± 0.004 | ↓↓ | 6.5 µM | inhibited the lumen formation completely; also recorded: exhibit inhibitory action against lumen formation | 0.00 ± 0.00 /cm^2 | ↓↓ | 0.084 ± 0.002 | 0.029 ± 0.004 | 0.39 ± 0.007 | 0.011 ± 0.002 | 89.4 ± 5.1 % of control | 97.8 ± 7.9 % of control | 57.1 ± 5.9 % of control | 5.6 ± 5.4 % of control | 0.0 ± 0.0 % of control | inhibitory action against cell multiplication (BAEC [5]; 10 μM): remarkable inhibitory action |
| CC(C)=CCC/C(C)=C/CC/C(C)=C/CC[C@]1(C)CCc2cc(O)cc(C)c2O1 (racemic) [DL-δ-Tocotrienol, δ-tocotrienol] | inhibited lumen formation completely | 0.00 ± 0.00 /cm^2 | 0.040 ± 0.002 | 0.003 ± 0.000 | 0.003 ± 0.000 | 0.003 ± 0.000 | ↓↓ | 5.5 µM | inhibited the lumen formation completely; also recorded: exhibit inhibitory action against lumen formation | 0.00 ± 0.00 /cm^2 | ↓↓ | 0.103 ± 0.001 | 0.004 ± 0.000 | 0.003 ± 0.000 | 0.002 ± 0.000 | 93.0 ± 6.8 % of control | 109.4 ± 8.0 % of control | 0.9 ± 1.3 % of control | 5.8 ± 4.5 % of control | 0.4 ± 0.9 % of control | inhibitory action against cell multiplication (BAEC [5]; 10 μM): remarkable inhibitory action |
| Cc1c(C)c2c(c(C)c1O)CC[C@@](C)(CCC[C@H](C)CCC[C@H](C)CCCC(C)C)O2 [α-Tocopherol, α-tocopherol, reference compound] | – | – | – | – | – | – | – | – | – | – | – | – | – | – | – | – | – | – | – | – | inhibition of lumen formation (BAEC [1]; 100 μM): did not inhibit lumen formation; Absorbance (BAEC [2]; 0 hr, FGF 20 ng/ml + sample 100 μM): 0.045 ± 0.002; Absorbance (BAEC [2]; 24 hrs, FGF 20 ng/ml + sample 100 μM): 0.080 ± 0.004; Absorbance (BAEC [2]; 48 hrs, FGF 20 ng/ml + sample 100 μM): 0.242 ± 0.014; Absorbance (BAEC [2]; 96 hrs, FGF 20 ng/ml + sample 100 μM): 0.360 ± 0.020; Cell Multiplication (BAEC [2]; [11]): ↑; inhibition of lumen formation induced by FGF (BAEC [4]; 100 μM + FGF 20 ng/ml): not found; Number of Cells Forming Lumen/cm^2 (BAEC [4]; sample 100 μM + FGF 20 ng/ml): 25.25 ± 2.10 /cm^2; Lumen Formation (BAEC [4]; [11]): →; inhibitory action against cell multiplication (BAEC [5]; 100 μM): does not exhibit inhibitory action; Absorbance (BAEC [5]; 0 hr, sample 100 μM): 0.092 ± 0.003; Absorbance (BAEC [5]; 24 hrs, sample 100 μM): 0.140 ± 0.003; Absorbance (BAEC [5]; 48 hrs, sample 100 μM): 0.268 ± 0.004; Absorbance (BAEC [5]; 96 hrs, sample 100 μM): 0.520 ± 0.012 |
